Marks after values point to notes of the source that are not given here. Where no end group is shown, it is not given here.
Legend:
[1] = test system: corneal neovascularization in BALB/c mice; assay: Alkali-burn corneal neovascularization in BALB/c mice (CD31 microvessel density); format: in vivo, mouse; settings: day 14 after alkali burn, intravitreal once a day for 1 week; for Inhibition rate: corneal microvessel density vs control; for MVD: microvessel density (CD31) of cornea
From the text: (1) Preparation of corneal neovascularization model induced by alkali burn in BALB/c mice: mice were randomly grouped and labeled as mPEG-HM-1 experimental group and control group, 5 […] in each group, respectively, was given mPEG-HM-1 and saline by Intravitreal injection after alkali burn, once a day for 1 week. The inflammatory reaction and neovascularization of the cornea were observed under slit lamp microscope at 1 d, 7 d, and 14 d after alkali burn. On the 14th day after alkali burn, the corneal neovascularization was recorded under the slit lamp microscope in the anterior segment of the eye. All the mice were euthanized by cervical dislocation and the eyeballs were removed, washed with saline to rid of blood, and was fixed in 4% paraformaldehyde for 1.5 h, dehydrated in PBS containing 30% sucrose overnight, embedded in OCT frozen section embedding agent, stored in −80° C. refrigerator, frozen section 8 μm, and underwent immunocytochemical detection of CD31 expression. (2) Quantitative measurement of corneal tissue microvessel density: Microvessel density (MVD) is an indicator for evaluating angiogenesis. Vascular endothelial cells were labeled with anti-CD31 antibody by immunohistochemistry, and the number of microvessels per unit area was counted to measure the degree of neovascularization. Standards for counting microvessels: Microscopically, the endothelial cells or cell clusters that are clearly demarcated from adjacent tissues in the corneal tissue and stained brown or brown are counted in the neovascularization. The number of new blood vessels in the whole section was counted under a 10×20 microscope. After the corneal tissue was photographed, the entire corneal tissue area was calculated by image processing software Image J, and the neovascular density of the whole section was determined. The test was repeated 3 times independently. The results obtained by the test were expressed as mean±SD, and a statistical T test was performed. *P<0.05 was a significant difference, and **P<0.01 was a very significant difference.

[2] = test system: Bladder Cancer tumor cells; assay: MTT proliferation inhibition, bladder cancer cells; format: cell-based, human; parameters: concentration or dose not given beside the values; settings: 48 h
Procedure: (§1) The activity of mPEG-HM-1 to inhibit the growth of various tumor cells was examined by MTT assay. The tumor cells were cultured to a concentration of 90% or more in a 37° C., 5% CO2 incubator and collected by trypsinization. The cells were resuspended in the culture medium and counted under a microscope to adjust the cell concentration to 2×10^4 cells/mL, the cell suspension was inoculated into a 96-well plate at 100 μL/well and incubated overnight at 37° C. in a 5% CO2 incubator. mPEG-HM-1 was diluted with the culture solution to each predetermined concentration. Docetaxel is diluted to the final concentration with the culture medium. After the cells were fully attached, each dilution was added to a 96-well plate (100 μL/well). The mPEG-HM-1 dilution was added as a drug-administered group, and docetaxel was added as a positive control group, and a culture solution without any drug was used as a negative control group. Incubate for 48 h at 37° C. in a 5% CO2 incubator. 5 mg/mL of MTT was added to a 96-well plate at 20 μL per well, and incubation was continued for 4 hours. The medium was aspirated, dissolved in 150 μL of DMSO per well, and gently mixed by shaking for 10 min. The absorbance was measured at a measurement wavelength of 570 nm and a reference wavelength of 630 nm using a microplate reader, and the rate of growth inhibition (proliferation inhibition, PI) was calculated. The formula is as follows: PI (%)=1−administration group/negative group
(§2) The test was repeated 3 times independently, and the results obtained by the test were expressed as mean±SD, and the test results are shown in Table 15 to Table 18.

[3] = test system: Ovarian cancer tumor cells; assay: MTT proliferation inhibition, ovarian cancer cells; format: cell-based, human; parameters: concentration or dose not given beside the values; settings: 48 h
Procedure: as §1, §2

Hemangioma tumor cells = assay: MTT proliferation inhibition, hemangioma cells; format: cell-based, human; parameters: concentration or dose not given beside the values; settings: 48 h
Procedure: as §1, §2

[4] = test system: Kidney cancer tumor cells; assay: MTT proliferation inhibition, kidney cancer cells; format: cell-based, human; parameters: concentration or dose not given beside the values; settings: 48 h
Procedure: as §1, §2

[5] = test system: Gastric cancer tumor cells; assay: MTT proliferation inhibition, gastric cancer cells; format: cell-based, human; parameters: concentration or dose not given beside the values; settings: 48 h
Procedure: as §1, §2

[6] = test system: adjuvant arthritis (AA) SD rats; assay: Adjuvant arthritis (AA) rat model; format: in vivo; settings: AA SD rats; for Clinical score: maximum score 16
Liver cancer tumor cells = assay: MTT proliferation inhibition, liver cancer cells; format: cell-based, human; parameters: concentration or dose not given beside the values; settings: 48 h
Procedure: as §1, §2

[7] = test system: Breast cancer tumor cells; assay: MTT proliferation inhibition, breast cancer cells; format: cell-based, human; parameters: concentration or dose not given beside the values; settings: 48 h
Procedure: as §1, §2

Melanoma tumor cells = assay: MTT proliferation inhibition, melanoma cells; format: cell-based, human; parameters: concentration or dose not given beside the values; settings: 48 h
Procedure: as §1, §2

[8] = test system: Pancreatic cancer tumor cells; assay: MTT proliferation inhibition, pancreatic cancer cells; format: cell-based, human; parameters: concentration or dose not given beside the values; settings: 48 h
Procedure: as §1, §2

[9] = test system: Human Umbilical Vein Endothelial Cells (HUVEC); assay: Transwell migration of HUVEC; format: cell-based; settings: 24 h
Procedure: 10 mg/mL Matrigel was diluted 1:2 with HUVEC-specific medium, spread on a transwell chamber membrane, and air-dried at room temperature. HUVEC cells cultured in logarithmic growth phase were digested with trypsin digest, collected, washed twice with PBS, and resuspended in blank HUVECs-specific medium. The cells were counted under a microscope, and the cell concentration was adjusted to 1×10^5/mL. The test solutions of each group were prepared and diluted to 100 μL with a blank HUVECs-specific medium. The cells were seeded into a transwell chamber at 100 μL per well, and each set of test solution was added to the chamber. The cell culture was stimulated by adding 0.6 mL of endothelial cell culture medium containing 5% fetal bovine serum and 1% ECGS into a 24-well plate, and cultured at 5% CO2 for 24 hour at 37° c. Discard the culture medium in the well, fix it with 90% alcohol at room temperature for 30 minutes, 0.1% crystal violet for 10 min at room temperature, rinse with water, gently wipe off the unsprayed cells in the upper layer with a cotton swab, observe under microscope and select four fields to take pictures. Calculate migration inhibition (MI) according to the formula: […]
Ntest was the number of cell migration in the test group, and Ncontrol was the number of cell migration in the blank control group.
The test was repeated 3 times independently. The results obtained from the test were calculated as mean±SD, and a statistical T test was performed. *P<0.05 was a significant difference, and **P<0.01 was a very significant difference.

[10] = 40 mg/kg subcutaneous once every three days
[11] = 80 mg/kg subcutaneous once every three days

| Substance | Inhibition rate [1] [%] | MVD [1] | rate of growth inhibition [2] [%] | rate of growth inhibition [3] [%] | rate of growth inhibition (Hemangioma tumor cells) [%] | rate of growth inhibition [4] [%] | rate of growth inhibition [5] [%] | Joint swelling [6, 10] [mm] | Left and right paw swelling [6, 10] [mm] | Clinical score [6, 10] | rate of growth inhibition (Liver cancer tumor cells) [%] | rate of growth inhibition [7] [%] | rate of growth inhibition (Melanoma tumor cells) [%] | rate of growth inhibition [8] [%] | cell migration number (Mean ± SD) ([9]; 70 μg/mL) | inhibition rate of HUVEC migration ([9]; 70 μg/mL) [%*] | cell migration number (Mean ± SD) ([9]; 90 μg/mL) | inhibition rate of HUVEC migration ([9]; 90 μg/mL) | cell migration number (Mean ± SD) ([9]; 100 μg/mL) | inhibition rate of HUVEC migration ([9]; 100 μg/mL) | further results |
| --- | --- | --- | --- | --- | --- | --- | --- | --- | --- | --- | --- | --- | --- | --- | --- | --- | --- | --- | --- | --- | --- |
| mPEG2-NHS20k-Arg-Gly-Ala-Asp-Arg-Ala-Gly-Gly-Gly-Gly-Arg-Gly-Asp ({mPEG2‑NHS 20 kDa}-RGADRAGGGGRGD) [mPEG2-NHS20k-HM-1] | 42.37 | 38.46 ± 4.528** | 49.79 ± 12.73 | 63.55 ± 19.60 | 55.38 ± 16.23 | 55.20 ± 15.43 | 60.90 ± 20.14 | 0.80 ± 0.21 | 3.77 ± 0.66 | 5.82 ± 1.03 | 55.03 ± 14.19 | 52.68 ± 17.25 | 69.11 ± 21.79 | 52.13 ± 13.32 | 618.48 ± 47.53 | 40.34 | 434.68 ± 42.64 | 58.07% | 562.61 ± 62.34 | 45.73%* | cell migration number (Mean ± SD) ([9]; 80 μg/mL): 512.85 ± 40.86; inhibition rate of HUVEC migration ([9]; 80 μg/mL): 50.53% |
| mPEG2-NHS40k-Arg-Gly-Ala-Asp-Arg-Ala-Gly-Gly-Gly-Gly-Arg-Gly-Asp ({mPEG2‑NHS 40 kDa}-RGADRAGGGGRGD) [mPEG2-NHS40k-HM-1] | 43.19 | 37.91 ± 4.273** | 45.60 ± 10.11 | 61.59 ± 13.61 | 50.64 ± 15.89 | 58.73 ± 14.31 | 56.39 ± 11.58 |  |  |  | 53.77 ± 13.64 | 49.12 ± 16.19 | 66.72 ± 20.85 | 51.49 ± 16.28 |  |  | 640.05 ± 50.70 | 38.26%* | 516.99 ± 60.04 | 50.13% | Joint swelling [6, 11]: 0.73 ± 0.14 mm; Left and right paw swelling [6, 11]: 3.81 ± 0.63 mm; Clinical score [6, 11]: 5.89 ± 1.07; cell migration number (Mean ± SD) ([9]; 110 μg/mL): 464.43 ± 46.48; inhibition rate of HUVEC migration ([9]; 110 μg/mL): 55.20%; cell migration number (Mean ± SD) ([9]; 120 μg/mL): 584.48 ± 52.28; inhibition rate of HUVEC migration ([9]; 120 μg/mL): 43.62%* |
| mPEG-ALD20k-Arg-Gly-Ala-Asp-Arg-Ala-Gly-Gly-Gly-Gly-Arg-Gly-Asp ({mPEG‑ALD 20 kDa}-RGADRAGGGGRGD) [mPEG-ALD20k-HM-1] | 48.04 | 34.67 ± 6.953** | 45.29 ± 11.63 | 80.68 ± 21.69 | 53.30 ± 16.06 | 70.23 ± 20.58 | 75.23 ± 20.62 | 0.76 ± 0.21 | 3.77 ± 0.62 | 5.67 ± 1.08 | 65.31 ± 18.18 | 65.17 ± 18.20 | 80.71 ± 23.46 | 70.65 ± 20.29 | 611.92 ± 52.08 | 40.53 | 403.15 ± 48.80 | 60.82% | 564.59 ± 50.42 | 45.13%* | cell migration number (Mean ± SD) ([9]; 80 μg/mL): 507.07 ± 40.74; inhibition rate of HUVEC migration ([9]; 80 μg/mL): 50.72% |

From US10869931B2, “Polyethylene glycol-modified angiogenesis inhibitor HM-1 and application thereof” (NANJING ANJI BIOLOGICAL TECHNOLOGY CO.,LTD, priority 2016, dated 2020)
